Experimental data from patent publication US20250075155A1, “Use of Vanillyl Ethers to Modify Flavor of Distilled Spirits” (Firmenich Incorporated, priority 2021, published 2025).

Assay: Sensory testing of unaged grain neutral spirit with vs without VEE (qualitative, taste testers)
Procedure: (§1) Sensory testing was performed comparing two samples of unaged grain neutral spirit (20% alcohol by volume), where one sample contained no vanillyl ether compounds and the other sample contained 4-(ethoxy methyl)-2-methoxyphenol (vanillyl ethyl ether or VEE) at a concentration of 5 ppm. The taste testers were asked to describe the differences between the two samples on a qualitative basis.
as §1, with “4-(ethoxymethyl)-2-methoxyphenol” for “4-(ethoxy methyl)-2-methoxyphenol”, “25” for “5”

[1] = VEE 5 ppm in unaged grain neutral spirit (20% ABV), relative to control sample
[2] = VEE 25 ppm in unaged grain neutral spirit (20% ABV), relative to control sample

With `CCOCc1ccc(O)c(OC)c1` [VEE, 4-(ethoxymethyl)-2-methoxyphenol] the Bitterness [1] was “All taste testers identified the test sample as having a less bitter”, the “Overall Taste” value [1] was “All taste testers identified the test sample as having a better overall” and the Smoothness/Balance/Roundness [1] was “All taste testers identified the test sample as having greater”. For the same molecule, the “Smoothness/Balance/Roundness: taste characteristic of an aged spirit” value [1] was “test sample as having a taste more characteristic of an aged spirit”, the Sweetness [1] was “sweeter taste” and the Smell (VEE 5 ppm in unaged grain neutral spirit (20% alcohol by volume), relative to control sample without vanillyl ether) was “sample (containing VEE) as having a slight rum-like smell relative”. For the same molecule, the Bitterness [2] was “All taste testers identified the test sample as having a less bitter”, the “Overall Taste” value [2] was “All taste testers identified the test sample as having a better” and the Smoothness/Balance/Roundness [2] was “All taste testers identified the test sample as having greater”. The Sweetness [2] was “sweeter taste”, the Tingling/Heat [2] was “increased tingling/hot perception very similar to ethanol profile” and the “Tingling/Heat: alcohol perception” value [2] was “while significantly increasing the alcohol perception; taste like”.
